Results: ChEMBL document CHEMBL1777759, “Synthesis of benzologues of Nitazoxanide and Tizoxanide: a comparative study of their in vitro broad-spectrum antiprotozoal activity” (Bioorg Med Chem Lett, 2011)

How the values were obtained:
[1] = Selectivity index, ratio of CC50 for african green monkey Vero cells to IC50 for Giardia intestinalis IMSS:0696:1; assay type: functional
[2] = system: Trypanosoma cruzi; test: Ratio of IC50 for benzanidazole to compound for Trypanosoma cruzi MHOM/MX/1994/Ninoa; assay type: functional
[3] = Selectivity index, ratio of CC50 for african green monkey Vero cells to IC50 for Entamoeba histolytica HM1-IMSS; assay type: functional
[4] = Cytotoxicity against african green monkey Vero cells after 72 hrs by MTT assay; assay type: cell-based; settings: chlorocebus sabaeus
[5] = system: Entamoeba histolytica; test: Antiprotozoan activity against Entamoeba histolytica HM1-IMSS trophozoites after 48 hrs; assay type: functional, organism-based
[6] = Selectivity index, ratio of CC50 for african green monkey Vero cells to IC50 for Plasmodium berghei; assay type: functional
[7] = system: Entamoeba histolytica; test: Ratio of IC50 for pentamidine to compound for Entamoeba histolytica HM1-IMSS; assay type: functional
[8] = Selectivity index, ratio of CC50 for african green monkey Vero cells to IC50 for Trypanosoma cruzi MHOM/MX/1994/Ninoa; assay type: functional
[9] = Selectivity index, ratio of CC50 for african green monkey Vero cells to IC50 for Leishmania mexicana MHOM/MX/ISETGS; assay type: functional
[10] = system: Trichomonas vaginalis; test: Antiprotozoan activity against Trichomonas vaginalis GT3 trophozoites after 48 hrs; assay type: functional, organism-based; settings: GT3, 48 h
[11] = system: Plasmodium berghei; test: Antimalarial activity against Plasmodium berghei schizonts isolated from parasitized erythrocytes infected Wistar rat measured 16 hrs post compound exposure; assay type: functional, organism-based
[12] = system: Trypanosoma cruzi; test: Antitrypanosomal activity against Trypanosoma cruzi MHOM/MX/1994/Ninoa epimastigotes after 72 hrs by neubauer chamber; assay type: functional, organism-based
[13] = system: Giardia intestinalis; test: Antiprotozoan activity against Giardia intestinalis IMSS:0696:1 trophozoites after 48 hrs; assay type: functional, organism-based; settings: Giardia duodenalis, IMSS:0696:1, 48 h
[14] = Selectivity index, ratio of CC50 for african green monkey Vero cells to IC50 for Trichomonas vaginalis GT3; assay type: functional
[15] = system: Leishmania mexicana; test: Antileishmanial activity against Leishmania mexicana MHOM/MX/ISETGS promastigotes after 72 hrs by neubauer chamber; assay type: functional, organism-based

Row | IC50 [5] [µM] | IC50 [10] [µM] | IC50 [11] [µM] | IC50 [12] [µM] | IC50 [13] [µM] | IC50 [15] [µM] | SMILES | Ratio CC50/IC50 [1] | Ratio IC50 [2] | Ratio CC50/IC50 [3] | CC50 at 72 h [4] [µM] | Ratio CC50/IC50 [6] | Ratio IC50 [7] | Ratio CC50/IC50 [8] | Ratio CC50/IC50 [9] | Ratio CC50/IC50 [14]
1 | 3.52 | 0.842 | 2.42 | 4.89 | 0.297 | 1.35 | CC(=O)Oc1ccccc1C(=O)Nc1nc2ccc([N+](=O)[O-])cc2s1 | 2300 | 7 | 194 | 683 | 282 | 10 | 140 | 506 | 811
2 | 8.02 | 2.15 | 2.37 | > 50 | 0.59 | > 50 | O=C(Nc1nc2ccc([N+](=O)[O-])cc2s1)c1ccccc1O | 1029 |  | 76 | 607 | 256 |  |  |  | 283
3 |  |  | 4.07 |  |  | > 50 | O=C(Cn1ccnc1[N+](=O)[O-])NCc1ccccc1 [BENZNIDAZOLE] |  |  |  | 14 |  |  |  |  | 
4 |  |  | > 50 | > 50 |  | > 50 | Cc1ncc([N+](=O)[O-])n1CCO [METRONIDAZOLE] |  |  |  | 387 |  |  |  |  | 
5 |  |  | 2.94 | > 50 |  |  | N=C(N)c1ccc(OCCCCCOc2ccc(C(=N)N)cc2)cc1 [PENTAMIDINE] |  |  |  | 47 |  |  |  |  | 
6 | 1.23 | 0.211 | 5.24 | 17.5 | 0.716 | 6.19 | O=C(Nc1ncc([N+](=O)[O-])s1)c1ccccc1O [TIZOXANIDE] | 542 |  | 316 | 388 | 74 |  | 22 | 63 | 1839

Row | SMILES | IC50 [5] [µM] | IC50 [10] [µM] | IC50 [11] [µM] | IC50 [12] [µM] | IC50 [13] [µM] | IC50 [15] [µM] | Ratio CC50/IC50 [1] | Ratio IC50 [2] | Ratio CC50/IC50 [3] | CC50 at 72 h [4] [µM] | Ratio CC50/IC50 [6] | Ratio IC50 [7] | Ratio CC50/IC50 [8] | Ratio CC50/IC50 [9] | Ratio CC50/IC50 [14]
7 | CC(=O)Oc1ccccc1C(=O)Nc1ncc([N+](=O)[O-])s1 [NITAZOXANIDE] | 0.504 | 0.068 | 3.89 | 18.7 | 1.21 | 6.18 | 686 |  | 1653 | 833 | 214 |  | 44 | 135 | 12250
